How the values were obtained:
Assay type in all cases: cell-based
[1] = test system: Enterococcus faecium and faecalis (RESISTANT); conditions: geometric mean of 4-6 isolates
Description: (§1) The antibacterial efficacy of the present compounds is illustrated by Table II. The minimal inhibitory concentrations (MICs) were determined using a standard broth micro-dilution assay.

[2] = test system: Enterococcus faecium and faecalis (SENSITIVE); assay: MIC, standard broth micro-dilution assay, SENSITIVE enterococci; design: unit not given here; conditions: geometric mean of 4-6 isolates
Description: as §1

[3] = test system: Staphylococcus aureus 446; assay: MIC, standard broth micro-dilution assay, SA 446; design: unit not given here
Description: as §1

[4] = test system: Staphylococcus aureus 489; assay: MIC, standard broth micro-dilution assay, SA 489; design: unit not given here
Description: as §1

[5] = test system: Staphylococcus aureus 447; assay: MIC, standard broth micro-dilution assay, SA 447; design: unit not given here
Description: as §1

[6] = test system: Staphylococcus haemolyticus 105; assay: MIC, standard broth micro-dilution assay, SH 105; design: unit not given here
Description: as §1

[7] = test system: Staphylococcus haemolyticus 415; assay: MIC, standard broth micro-dilution assay, SH 415; design: unit not given here
Description: as §1

[8] = test system: Staphylococcus epidermidis 270; assay: MIC, standard broth micro-dilution assay, SE 270; design: unit not given here
Description: as §1

[9] = test system: Streptococcus pyogenes C203; assay: MIC, standard broth micro-dilution assay, SPY C203; design: unit not given here
Description: as §1

[10] = test system: Streptococcus pneumoniae P1; assay: MIC, standard broth micro-dilution assay, SPN P1; design: unit not given here
Description: as §1

SMILES | Minimal Inhibitory Concentration (MIC) RESISTANT [1] | Minimal Inhibitory Concentration (MIC) SENSITIVE [2] | Minimal Inhibitory Concentration (MIC) SA 446 [3] | Minimal Inhibitory Concentration (MIC) SA 489 [4] | Minimal Inhibitory Concentration (MIC) SA 447 [5] | Minimal Inhibitory Concentration (MIC) SH 105 [6] | Minimal Inhibitory Concentration (MIC) SH 415 [7] | Minimal Inhibitory Concentration (MIC) SE 270 [8] | Minimal Inhibitory Concentration (MIC) SPY C203 [9] | Minimal Inhibitory Concentration (MIC) SPN P1 [10]
C[C@@H]1O[C@@H](O[C@H]2[C@H](Oc3c4cc5cc3Oc3ccc(cc3Cl)[C@@H](O[C@H]3C[C@](C)(N)[C@@H](O)[C@H](C)O3)[C@@H]3NC(=O)[C@H](NC(=O)[C@@H]5NC(=O)[C@H](CC(N)=O)NC(=O)[C@H](NCCCCCCCCc5ccccc5)[C@H](O)c5ccc(c(Cl)c5)O4)c4ccc(O)c(c4)-c4c(O)cc(O)cc4[C@@H](C(=O)O)NC3=O)O[C@H](CO)[C@@H](O)[C@@H]2O)C[C@](C)(N)[C@H]1O [Example 19, N^1 -(8-PHENYL-n-OCTYL)DESLEUCYL-A82846B] | 45 | 254 | 2 | 1 | 1 | 2 | 2 | 4 | 0.5 | 0.5
C[C@@H]1O[C@@H](O[C@@H]2c3ccc(c(Cl)c3)Oc3cc4cc(c3O[C@@H]3O[C@H](CO)[C@@H](O)[C@H](O)[C@H]3O[C@H]3C[C@](C)(NCc5ccc(-c6ccccc6)cc5)[C@@H](O)[C@H](C)O3)Oc3ccc(cc3Cl)[C@@H](O)[C@@H](NCCCCCCc3ccccc3)C(=O)N[C@@H](CC(N)=O)C(=O)N[C@H]4C(=O)N[C@H]3C(=O)N[C@@H]2C(=O)N[C@H](C(=O)O)c2cc(O)cc(O)c2-c2cc3ccc2O)C[C@](C)(N)[C@H]1O [Example 20, N^1 -(6-PHENYL-n-HEXYL)-N^DISACC -(p-PHENYLBENZYL)-DESLEUCYL-A82846B] | 64 | 11 | 4 | 4 | 4 | 1 | 1 | 1 | ≤ .06 | ≤ .06
C[C@@H]1O[C@@H](O[C@H]2[C@H](Oc3c4cc5cc3Oc3ccc(cc3Cl)[C@@H](O[C@H]3C[C@](C)(N)[C@@H](O)[C@H](C)O3)[C@@H]3NC(=O)[C@H](NC(=O)[C@@H]5NC(=O)[C@H](CC(N)=O)NC(=O)[C@H](NCc5ccc(OCCCc6ccccc6)cc5)[C@H](O)c5ccc(c(Cl)c5)O4)c4ccc(O)c(c4)-c4c(O)cc(O)cc4[C@@H](C(=O)O)NC3=O)O[C@H](CO)[C@@H](O)[C@@H]2O)C[C@](C)(N)[C@H]1O [Example 21, N^1 -(p-(3-PHENYL-n-PROPOXY)BENZYL)DESLEUCYL-A82846B] | > 128 | 32 | 4 | 4 | 4 | 4 | 8 | 4 | ≤ .06 | ≤ .06
C[C@@H]1O[C@@H](O[C@H]2[C@H](Oc3c4cc5cc3Oc3ccc(cc3Cl)[C@@H](O[C@H]3C[C@](C)(N)[C@@H](O)[C@H](C)O3)[C@@H]3NC(=O)[C@H](NC(=O)[C@@H]5NC(=O)[C@H](CC(N)=O)NC(=O)[C@H](NCc5ccc(-c6cc(C(F)(F)F)cc(C(F)(F)F)c6)cc5)[C@H](O)c5ccc(c(Cl)c5)O4)c4ccc(O)c(c4)-c4c(O)cc(O)cc4[C@@H](C(=O)O)NC3=O)O[C@H](CO)[C@@H](O)[C@@H]2O)C[C@](C)(N)[C@H]1O [Example 22, N^1 -(p-(3,5-BIS-(TRIFLUOROMETHYL)-PHENYL)BENZYL)-DESLEUCYL-A82846B] | 9.5 | 4.6 | 2 | 1 | 2 | 1 | 2 | 2 | ≤ .06 | ≤ .06
CCCCCCCCOc1ccc(CN[C@H]2C(=O)N[C@@H](CC(N)=O)C(=O)N[C@H]3C(=O)N[C@H]4C(=O)N[C@H](C(=O)N[C@H](C(=O)O)c5cc(O)cc(O)c5-c5cc4ccc5O)[C@H](O[C@H]4C[C@](C)(N)[C@@H](O)[C@H](C)O4)c4ccc(c(Cl)c4)Oc4cc3cc(c4O[C@@H]3O[C@H](CO)[C@@H](O)[C@H](O)[C@H]3O[C@H]3C[C@](C)(N)[C@@H](O)[C@H](C)O3)Oc3ccc(cc3Cl)[C@H]2O)cc1 [Example 23, N^1 -(p-(n-OCTYLOXY)-BENZYL)DESLEUCYL-A82846B] | 11 | 9.2 | 8 | 4 | 4 | 4 | 8 | 4 | 0.25 | 1
CSc1ccc(CN[C@H]2C(=O)N[C@@H](CC(N)=O)C(=O)N[C@H]3C(=O)N[C@H]4C(=O)N[C@H](C(=O)N[C@H](C(=O)O)c5cc(O)cc(O)c5-c5cc4ccc5O)[C@H](O[C@H]4C[C@](C)(N)[C@@H](O)[C@H](C)O4)c4ccc(c(Cl)c4)Oc4cc3cc(c4O[C@@H]3O[C@H](CO)[C@@H](O)[C@H](O)[C@H]3O[C@H]3C[C@](C)(N)[C@@H](O)[C@H](C)O3)Oc3ccc(cc3Cl)[C@H]2O)cc1 [Example 24, N^1 -(p-(METHYLTHIO)-BENZYL)DESLEUCYL-A82846B] | > 128 | > 128 | 32 | 16 | 32 | 32 | 64 | 32 | 8 | 8
CSc1ccc(CN[C@H]2C(=O)N[C@@H](CC(N)=O)C(=O)N[C@H]3C(=O)N[C@H]4C(=O)N[C@H](C(=O)N[C@H](C(=O)O)c5cc(O)cc(O)c5-c5cc4ccc5O)[C@H](O[C@H]4C[C@](C)(N)[C@@H](O)[C@H](C)O4)c4ccc(c(Cl)c4)Oc4cc3cc(c4O[C@@H]3O[C@H](CO)[C@@H](O)[C@H](O)[C@H]3O[C@H]3C[C@](C)(NCc4ccc(SC)cc4)[C@@H](O)[C@H](C)O3)Oc3ccc(cc3Cl)[C@H]2O)cc1 [Example 25, N^1,N^DISACC -BIS(p-(METHYLTHIO)-BENZYL)DESLEUCYL-A82846B] | 6.7 | 2.6 | 8 | 4 | 4 | 4 | 8 | 8 | 4 | 1
C[C@@H]1O[C@@H](O[C@@H]2c3ccc(c(Cl)c3)Oc3cc4cc(c3O[C@@H]3O[C@H](CO)[C@@H](O)[C@H](O)[C@H]3O[C@H]3C[C@](C)(NCc5ccc(-c6ccccc6)cc5)[C@@H](O)[C@H](C)O3)Oc3ccc(cc3Cl)[C@@H](O)[C@@H](NCc3ccc(-c5cc(C(F)(F)F)cc(C(F)(F)F)c5)cc3)C(=O)N[C@@H](CC(N)=O)C(=O)N[C@H]4C(=O)N[C@H]3C(=O)N[C@@H]2C(=O)N[C@H](C(=O)O)c2cc(O)cc(O)c2-c2cc3ccc2O)C[C@](C)(N)[C@H]1O [Example 26, N^1 -(p-(3,5-BIS-(TRIFLUOROMETHYL)-PHENYL)BENZYL)-N^DISACC -(p-PHENYLBENZYL)-DESLEUCYL-A82846B] | 5.7 | 6.1 | 8 | 4 | 4 | 2 | 4 | 4 | 0.25 | ≤ .06
C[C@@H]1O[C@@H](O[C@@H]2c3ccc(c(Cl)c3)Oc3cc4cc(c3O[C@@H]3O[C@H](CO)[C@@H](O)[C@H](O)[C@H]3O[C@H]3C[C@](C)(NCc5ccc(-c6ccc(Cl)cc6)cc5)[C@@H](O)[C@H](C)O3)Oc3ccc(cc3Cl)[C@@H](O)[C@@H](NCc3ccc(-c5cc(C(F)(F)F)cc(C(F)(F)F)c5)cc3)C(=O)N[C@@H](CC(N)=O)C(=O)N[C@H]4C(=O)N[C@H]3C(=O)N[C@@H]2C(=O)N[C@H](C(=O)O)c2cc(O)cc(O)c2-c2cc3ccc2O)C[C@](C)(N)[C@H]1O [Example 27, N^1 -(p-(3,5-BIS-(TRIFLUOROMETHYL)-PHENYL)BENZYL)-N^DISACC -(p-(p-CHLOROPHENYL)BENZYL-DESLEUCYL-A82846B] | 9.5 | 6.1 | 64 | 32 | 32 | 8 | 32 | 8 | 64 | 32

Reference: US5977063A, “Alkylated hexapeptides” (Eli Lilly and Company, priority 1998, dated 1999)
